Holding throughout (type): in vivo
Data set [1] concerns Heliothis virescens. Kind of data set: Action on Tobacco Budworm (Heliothis virescens). Particulars: 800 ppm; egg and larval mortality; 5 days. The procedure: Example B5: Action on Tobacco Budworm (Heliothis virescens)
For evaluating control of tobacco budworm (Heliothis virescens) the test unit consisted of 96-well-microtiter plates containing an insect diet and 15-25 H. virescens eggs.
The compounds were formulated using a solution containing 75% v/v water and 25% v/v DMSO. Different concentrations of formulated compounds were sprayed onto the insect diet at 10 μl, using a custom-built micro atomizer, at two replications.
After application, microtiter plates were incubated at about 28±1 °C and about 80±5% relative humidity for 5 days. Egg and larval mortality were then visually assessed.

For data set [2], the system named is Aedes aegypti. The data set can be described thus: whole plant or invertebrate. Particulars: 800 ppm; larvae; 2 days. The procedure:
Example B1: Action on Yellow Fever Mosquito (Aedes aegypti)
For evaluating control of yellow fever mosquito (Aedes aegypti) the test unit consisted of 96-well-microtiter plates containing 200 μl of tap water per well and 5-15 freshly hatched A. aegypti larvae.
The active compounds or mixtures were formulated using a solution containing 75% (v/V) water and 25% (v/v) DMSO. Different concentrations of formulated compounds or mixtures were sprayed onto the insect diet at 2.5 μl, using a custom-built micro atomizer, at two replications. For experimental mixtures in these tests identical volumes of both mixing partners at the desired concentrations respectively, were mixed together.
After application, microtiter plates were incubated at 28±1 °C, 80±5% RH for 2 days. Larval mortality was then visually assessed.

Data set [3] deals with Plutella xylostella. Kind of data set: Action on Diamond Back Moth (Plutella xylostella), cabbage leaf dip, 3rd instar larvae. Particulars: 300 ppm; 3rd instar larvae; 72 hours after treatment. The procedure:
Example B6: Action on Diamond Back Moth (Plutella xylostella)
The active compound is dissolved at the desired concentration in a mixture of 1:1 (v/v) distilled water:acetone. Surfactant (Kinetic® HV) is added at a rate of 0.01% (v/v). The test solution is prepared at the day of use.
Leaves of cabbage were dipped in test solution and air-dried. Treated leaves were placed in petri dishes lined with moist filter paper and inoculated with ten 3rd instar larvae. Mortality was recorded 72 hours after treatment. Feeding damages were also recorded using a scale of 0-100%.
(§1) Compounds disclosed in the document WO2021013561 were prepared according to procedures described therein and their pesticidal activities were determined by procedure analogues to the procedures as described above in examples B6 and B7.

Data set [4] concerns Spodoptera eridania. The data set can be described thus: Action on Southern Armyworm (Spodoptera eridania), 2nd Instar Larvae. Particulars: 300 ppm; 2nd instar larvae; 4 days after treatment. The procedure: Example B7: Action on Southern Armyworm (Spodoptera eridania), 2nd Instar Larvae
The active compounds were formulated by a Tecan liquid handler in 100% cyclohexanone as a 10,000 ppm solution supplied in tubes. The 10,000 ppm solution was serially diluted in 100% cyclohexanone to make interim solutions. These served as stock solutions for which final dilutions were made by the Tecan in 50% acetone: 50% water (v/v) into 10 or 20 ml glass vials. A nonionic surfactant (Kinetic®) was included in the solution at a volume of 0.01% (v/v). The vials were then inserted into an automated electrostatic sprayer equipped with an atomizing nozzle for application to plants/insects.
Lima bean plants (variety Sieva) were grown 2 plants to a pot and selected for treatment at the 1st true leaf stage. Test solutions were sprayed onto the foliage by an automated electrostatic plant sprayer equipped with an atomizing spray nozzle. The plants were dried in the sprayer fume hood and then removed from the sprayer. Each pot was placed into perforated plastic bags with a zip closure. About 10 to 11 armyworm larvae were placed into the bag and the bags zipped closed. Test plants were maintained in a growth room at about 25 °C and about 20-40% relative humidity for 4 days, avoiding direct exposure to fluorescent light (24 hour photoperiod) to prevent trapping of heat inside the bags. Mortality and reduced feeding were assessed 4 days after treatment, compared to untreated control plants.
as §1

The test system of data set [5] is Anthonomus grandis. Kind of data set: Action on Boll Weevil (Anthonomus grandis). The conditions noted are these: 800 ppm; egg and larval mortality; 5 days. The procedure:
Example B3: Action on Boll Weevil (Anthonomus grandis)
For evaluating control of boll weevil (Anthonomus grandis) the test unit consisted of 96-well-microtiter plates containing an insect diet and 5-10 A. grandis eggs.
The compounds were formulated using a solution containing 75% (v/v) water and 25% (v/v) DMSO. Different concentrations of formulated compounds were sprayed onto the insect diet at 5 μl, using a custom-built micro atomizer, at two replications.
After application, microtiter plates were incubated at about 25±1 °C and about 75±5% relative humidity for 5 days. Egg and larval mortality were then visually assessed.

Each structure is given as a SMILES string.

With `Cc1ccc(C(C)C)c(N2C(=O)CS/C2=N\C(=O)Nc2ccc(-n3cc(NC(=O)c4ccc(CBr)cc4)c(C)n3)cc2)c1` [Example C-31], the “mortality in comparison with untreated controls” value (“mortality in comparison” for short) in data set [1] was “at least 75%”; in data set [2], “at least 50%”; in data set [3], “at least 75%”; in data set [4], “at least 75%”; in data set [5] it was “at least 75%”.
With `COc1ccc(C(=O)Nc2cn(-c3ccc(NC(=O)/N=C4\SCC(=O)N4c4cc(C)ccc4C(C)C)cc3)nc2C)cc1` [Example C-32], the “mortality in comparison” value is “at least 75%” in data set [1]; “at least 50%” in data set [2]; “at least 75%” in data set [3]; “at least 75%” in data set [4]; “at least 75%” in data set [5].
Consider `C#Cc1ccc(C(=O)Nc2cn(-c3ccc(NC(=O)/N=C4\SCC(=O)N4c4cc(C)ccc4C(C)C)cc3)nc2C)cc1` [Example C-34], for which the “mortality in comparison” value in data set [1] was “at least 75%”; in data set [2] it was “at least 50%”; in data set [3] it was “at least 75%”; in data set [4] it was “at least 75%”; in data set [5] it was “at least 75%”.
For the compound `Cc1ccc(C(C)C)c(N2C(=O)CS/C2=N\C(=O)Nc2ccc(-n3cc(NC(=O)c4ccc(C#N)cc4Cl)c(C)n3)cc2)c1` [Example C-35], the “mortality in comparison” value in data set [1] is “at least 75%”; in data set [2] it was “at least 50%”; in data set [3] it was “at least 75%”; in data set [4], “at least 75%”; in data set [5] it was “at least 75%”.
Consider `Cc1ccc(C(C)C)c(N2C(=O)CS/C2=N\C(=O)Nc2ccc(-n3cc(NC(=O)c4ccc(C(C)(F)F)cc4)c(C)n3)cc2)c1` [Example C-36], for which the “mortality in comparison” value was “at least 75%” in data set [1]; “at least 50%” in data set [2]; “at least 75%” in data set [3]; “at least 75%” in data set [4]; “at least 75%” in data set [5].
Consider `Cc1ccc(C(C)C)c(N2C(=O)CSC2=NC(=O)Nc2ccc(-n3cc(NC(=O)c4csc(Cl)c4)c(C)n3)cc2)c1` [Example C-39], for which the “mortality in comparison” value in data set [1] is listed as “at least 75%”; in data set [2], “at least 50%”; in data set [3], “at least 75%”; in data set [4] it was “at least 75%”; in data set [5], “at least 75%”.
As for `Cc1ccc(C(C)C)c(N2C(=O)CSC2=NC(=O)Nc2ccc(-n3cc(NC(=O)c4cc(Cl)cs4)c(C)n3)cc2)c1` [Example C-40], the “mortality in comparison” value in data set [1] is on record as “at least 75%”; in data set [2], “at least 50%”; in data set [3], “at least 75%”; in data set [4], “at least 75%”; in data set [5] it was “at least 75%”.
`Cc1ccc(C(C)C)c(N2C(=O)CSC2=NC(=O)Nc2ccc(-n3cc(NC(=O)c4nc(Cl)cs4)c(C)n3)cc2)c1` [Example C-42]: the “mortality in comparison” value in data set [1] is listed as “at least 75%”; in data set [2], “at least 50%”; in data set [3] it was “at least 75%”; in data set [4], “at least 75%”; in data set [5], “at least 75%”.
For the compound `Cc1ccc(C(C)C)c(N2C(=O)CSC2=NC(=O)Nc2ccc(-n3cc(NC(=O)c4csc(Cl)n4)c(C)n3)cc2)c1` [Example C-43], the “mortality in comparison” value is “at least 75%” in data set [1]; “at least 50%” in data set [2]; “at least 75%” in data set [3]; “at least 75%” in data set [4]; “at least 75%” in data set [5].
As for `Cc1ccc(C(=O)Nc2cn(-c3ccc(NC(=O)N=C4SCC(=O)N4c4cc(C)ccc4C(C)C)cc3)nc2C)cc1` [Example C-49], the “mortality in comparison” value is “at least 75%” in data set [1]; “at least 50%” in data set [2]; “at least 75%” in data set [3]; “at least 75%” in data set [4]; “at least 75%” in data set [5].
Take `Cc1ccc(C(C)C)c(N2C(=O)CSC2=NC(=O)Nc2ccc(-n3cc(NC(=O)c4ccncc4)c(C)n3)cc2)c1` [Example C-59]: the “mortality in comparison” value in data set [1] was “at least 75%”; in data set [2], “at least 50%”; in data set [3] it was “at least 75%”; in data set [4] it was “at least 75%”; in data set [5], “at least 75%”.
For `Cc1ccc(C(C)C)c(N2C(=O)CSC2=NC(=O)Nc2ccc(-n3cc(NC(=O)c4ccc(I)cc4)c(C)n3)cc2)c1` [Example C-71], the “mortality in comparison” value in data set [1] was “at least 75%”; in data set [2], “at least 50%”; in data set [3], “at least 75%”; in data set [4] it was “at least 75%”; in data set [5], “at least 75%”.
Turning to `Cc1ccc(C(C)C)c(N2C(=O)CSC2=NC(=O)Nc2ccc(-n3cc(NC(=O)c4ccc(S(=O)(=O)C(F)(F)F)cc4)c(C)n3)cc2)c1` [Example C-79], the “mortality in comparison” value in data set [1] is given as “at least 75%”; in data set [2], “at least 50%”; in data set [3], “at least 75%”; in data set [4], “at least 75%”; in data set [5] it was “at least 75%”.
Consider `Cc1ccc(C(C)C)c(N2C(=O)CSC2=NC(=O)Nc2ccc(-n3cc(NC(=O)c4ccc(C(F)F)cc4)c(C)n3)cc2)c1` [Example C-82], for which the “mortality in comparison” value in data set [1] is reported as “at least 75%”; in data set [2], “at least 50%”; in data set [3] it was “at least 75%”; in data set [4], “at least 75%”; in data set [5], “at least 75%”.
For `Cc1ccc(C(C)C)c(N2C(=O)CSC2=NC(=O)Nc2ccc(-n3cc(NC(=O)c4ccc(C5(F)CC5)cc4)c(C)n3)cc2)c1` [Example C-88], the “mortality in comparison” value in data set [1] is “at least 75%”; in data set [2] it was “at least 50%”; in data set [3], “at least 75%”; in data set [4] it was “at least 75%”; in data set [5] it was “at least 75%”.

For the origin of these results see US20260354380A1, “PYRAZOLO PESTICIDAL COMPOUNDS” (BASF SE, priority 2022, published 2026).
